Results on eight compounds are retold here after ChEMBL document CHEMBL3856281, “Novel approach of fragment-based lead discovery applied to renin inhibitors” (Bioorg Med Chem, 2016).

≈ marks a conversion by molar mass, not a printed value.

Data set [1] has as its target T1, Renin (Homo sapiens) (UniProt P00797).
T1 sequence (whole entry): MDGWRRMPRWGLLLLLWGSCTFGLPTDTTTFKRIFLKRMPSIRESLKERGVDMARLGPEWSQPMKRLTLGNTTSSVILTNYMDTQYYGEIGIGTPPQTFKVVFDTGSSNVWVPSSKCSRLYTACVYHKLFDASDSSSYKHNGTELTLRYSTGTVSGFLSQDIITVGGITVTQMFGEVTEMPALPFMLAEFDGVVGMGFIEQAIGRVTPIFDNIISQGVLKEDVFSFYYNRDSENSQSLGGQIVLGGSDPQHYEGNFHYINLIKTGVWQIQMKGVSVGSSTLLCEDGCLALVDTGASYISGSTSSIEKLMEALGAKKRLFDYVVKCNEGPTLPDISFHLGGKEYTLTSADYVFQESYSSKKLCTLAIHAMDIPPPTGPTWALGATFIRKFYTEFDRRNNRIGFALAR
As to the kind of experiment: Inhibition of human recombinant renin expressed in FreeStyle 293 expression system at 100 uM using FITC-epsilonAcp-Asp-Arg-Val-Tyr-Ile-His-Pro-Phe-His-Leu-Val-Ile-His-Asn-Arg-NH2 as substrate preincubated for 15 mins followed by substrate addition measured after 30 mins by microchip type capillary electrophoresis method relative to control.

The target of data set [2] is T2, Renin (Homo sapiens, UniProt P00797).
T2 sequence (P00797 whole entry): T1 sequence (whole entry)
Put plainly: Inhibition of human recombinant renin expressed in FreeStyle 293 expression system using FITC-epsilonAcp-Asp-Arg-Val-Tyr-Ile-His-Pro-Phe-His-Leu-Val-Ile-His-Asn-Arg-NH2 as substrate preincubated for 15 mins followed by substrate addition measured after 30 mins by microchip type capillary electrophoresis method.

The target in data set [3] is hERG (KCNH2) (Homo sapiens, UniProt Q12809). As to the kind of experiment: Inhibition of human ERG expressed in CHO cells assessed as suppression of peak tail currents incubated for 5 mins by patch clamp method. It is filed as cell-based. The conditions noted are these: CHO cells that express human ERG.
The nature of data set [4]: Aqueous solubility of the compound in pH 6.8 Japanese pharmacopoeia second fluid by HPLC analysis. The data set is classed as ADME.
Data set [5] addresses CYP3A4 (Homo sapiens, UniProt P08684). Put plainly: Inhibition of CYP3A4 in human liver microsomes using testosterone as substrate assessed as 6beta-hydroxytestosterone formation at 10 uM after 60 mins by LC/MS/MS analysis relative to control. The data set is classed as ADME. The conditions noted are these: probe testosterone. In general terms: Liver microsomes are vesicles of endoplasmic reticulum, rich in cytochrome P450 enzymes.

A short description of data set [6]: Cytotoxicity against human HepG2 cells assessed as ATP contents at 30 uM after 1 day by ATPLiteTM-M assay relative to control. The note with it: read-out: Activity. It is filed as toxicity, cell-based. For orientation: ATP-based viability assays read luminescence as a measure of living cells.
Data set [7] is described as follows: Intrinsic clearance in human liver microsomes assessed per mg of protein at 1 umol/l after 15 to 30 mins in presence of NADPH-generating system by LC/MS/MS analysis. The data set is classed as ADME. The conditions noted are these: read-out: CLH.

Sequence of hERG (KCNH2) (Q12809 whole entry): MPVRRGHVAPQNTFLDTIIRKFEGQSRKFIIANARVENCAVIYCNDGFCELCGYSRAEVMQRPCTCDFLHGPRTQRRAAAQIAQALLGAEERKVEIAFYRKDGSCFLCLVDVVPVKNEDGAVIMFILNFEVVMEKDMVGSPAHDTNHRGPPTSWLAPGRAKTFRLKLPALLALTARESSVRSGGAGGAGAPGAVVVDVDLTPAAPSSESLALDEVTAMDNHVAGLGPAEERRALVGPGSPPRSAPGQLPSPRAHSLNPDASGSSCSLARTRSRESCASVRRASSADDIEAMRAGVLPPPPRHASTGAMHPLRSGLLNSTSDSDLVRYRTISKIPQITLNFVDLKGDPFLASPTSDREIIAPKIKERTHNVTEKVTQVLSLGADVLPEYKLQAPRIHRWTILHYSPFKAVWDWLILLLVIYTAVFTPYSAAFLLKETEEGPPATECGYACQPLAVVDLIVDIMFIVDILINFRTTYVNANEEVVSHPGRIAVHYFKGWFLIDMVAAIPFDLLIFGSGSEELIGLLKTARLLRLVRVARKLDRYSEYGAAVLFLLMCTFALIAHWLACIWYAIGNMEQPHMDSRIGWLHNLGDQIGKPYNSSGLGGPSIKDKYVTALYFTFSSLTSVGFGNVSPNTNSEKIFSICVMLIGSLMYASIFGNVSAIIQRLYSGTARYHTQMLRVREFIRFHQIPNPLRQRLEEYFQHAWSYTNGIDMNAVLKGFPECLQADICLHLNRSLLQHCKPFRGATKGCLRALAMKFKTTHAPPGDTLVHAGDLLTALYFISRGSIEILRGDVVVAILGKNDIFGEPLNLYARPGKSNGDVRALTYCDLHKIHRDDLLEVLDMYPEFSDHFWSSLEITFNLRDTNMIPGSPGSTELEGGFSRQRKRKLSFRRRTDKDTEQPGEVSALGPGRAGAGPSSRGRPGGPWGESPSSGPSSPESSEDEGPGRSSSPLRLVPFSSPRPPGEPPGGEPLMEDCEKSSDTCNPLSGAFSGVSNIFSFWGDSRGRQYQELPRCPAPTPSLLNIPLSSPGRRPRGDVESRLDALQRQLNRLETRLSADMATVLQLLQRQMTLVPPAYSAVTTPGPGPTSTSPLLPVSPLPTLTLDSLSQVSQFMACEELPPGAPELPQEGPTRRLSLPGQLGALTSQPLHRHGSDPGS
Sequence of CYP3A4 (P08684 whole entry): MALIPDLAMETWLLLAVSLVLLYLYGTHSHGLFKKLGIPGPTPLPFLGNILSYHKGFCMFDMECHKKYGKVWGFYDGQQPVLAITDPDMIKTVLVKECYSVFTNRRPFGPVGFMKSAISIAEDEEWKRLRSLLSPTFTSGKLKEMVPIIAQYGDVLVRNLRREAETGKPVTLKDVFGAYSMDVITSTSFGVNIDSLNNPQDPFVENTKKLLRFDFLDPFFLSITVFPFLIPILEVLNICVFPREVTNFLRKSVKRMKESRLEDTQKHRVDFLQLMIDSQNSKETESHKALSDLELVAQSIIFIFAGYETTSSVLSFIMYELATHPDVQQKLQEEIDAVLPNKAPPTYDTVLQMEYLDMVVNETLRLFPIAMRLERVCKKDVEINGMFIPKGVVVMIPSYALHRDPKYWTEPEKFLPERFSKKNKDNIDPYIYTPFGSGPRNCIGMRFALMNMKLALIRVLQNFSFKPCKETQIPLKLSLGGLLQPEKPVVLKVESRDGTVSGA

As a reminder, the inhibition is the change of the read-out against control, counted positive when it falls. Turning to `CCN(CC)C(=O)c1ccc(C)nc1NCc1ccco1`, in data set [1], the inhibition came out at 31%.

Broadly, the IC50 is the midpoint of a concentration-inhibition curve. Consider `CCC1CCCCN1C(=O)c1ccc(C)nc1NCc1ccco1` (stereo not drawn), for which the inhibition in data set [1] was 86%. Also, in data set [2], the IC50 amounted to 11 µM.

As for `Cc1ccc(C(=O)NC(C)(C)c2ccccc2)c(NCc2ccco2)n1`, in data set [1], the inhibition was under 30%.

For the compound `NCc1ccco1`, the IC50 in data set [2] was over 300 µM.

A word on the solubility: it is the concentration that dissolves in the medium under given conditions. A higher solubility goes with a readily soluble substance. Consider `c1coc(CNc2ncnc3sc4c(c23)CCCC4)c1`, for which the inhibition at 5 min in data set [3] worked out at 62.8%. This compound gave a solubility in data set [4] of 5.2 µg/mL (≈ 18.2 µM). For the same compound, the inhibition at 1 h, 10 µM in data set [5] is 70.2%. In addition, the viability at 24 h, 30 µM in data set [6] was found to be 31.4%. Moreover, the microsomal CLint at 1 µM in data set [7] turned out to be 187 µL/min/mg.

In the case of `Nc1ncnc2sc3c(c12)CCCC3`, the IC50 in data set [2] is over 300 µM.

With `Clc1cncc(NCc2ccco2)n1`, the inhibition in data set [1] was 65%.

As for `Cc1ccc(C(=O)N2CCCCCC2)c(NCc2ccco2)n1`, the inhibition in data set [1] worked out at 70%. In data set [3], the inhibition at 5 min is 7.5%. For the same compound, the solubility in data set [4] turned out to be 50 µg/mL (≈ 160 µM). Moreover, in data set [5], the inhibition at 1 h, 10 µM stood at 35.6%. Moreover, the viability at 24 h, 30 µM in data set [6] was 91.6%. Further, the microsomal CLint at 1 µM in data set [7] turned out to be 85 µL/min/mg.
